Experimental data: patent US8628961B2, “Small molecule antagonists of phosphatidylinositol-3,4,5-triphosphate (PIP3) and uses thereof” (Tufts University, priority 2010, dated 2014)

Legend:
Akt PH domain [1] = biological target: T1, Akt PH domain (Homo sapiens (Human), UniProt P31749); experiment: Fluorescence polarization (FP) PIP3/Akt PH domain binding assay; settings: 15 nM TMR-conjugated PIP3, PITs 6.25-200 μM, 30 min
Text: (§1) In order to identify compounds that disrupt the interaction between PIP3 and PH domains, a high-throughput fluorescence polarization (FP)-binding assay was developed using recombinant 1-123 amino acid N-terminal fragment of human Akt1 (also referred to herein simply as Akt), encompassing the PH domain (PH123 protein), and fluorescent […] PIP3 molecule. The amino acid sequence of human Akt1 is publicly available as, for example, GenBank Accession No. NP_001014432.1 (SEQ ID NO:1), and the corresponding DNA sequence is publicly available as, for example, GenBank Accession No. NM_001014432. Briefly, 5 μM recombinant GST fusion proteins containing 1-123 a.a. N-terminal fragment of human Akt1 (PH 123) or 100 nM 441-551 a.a. region of human PDK1 were incubated with 15 nM TMR-labeled PIP3, PIP2, or PIP5 in buffer containing 50 mM Tris-HCl (pH 7.5), 150 mM NaCl, and 5 mM b-ME for 15 min at room temperature in the dark. FP values were determined using Wallac Victor 3 plate reader. For the primary screen, 50,000 diverse small molecules from Harvard Institute of Chemistry and Cell Biology were screened (iccb.med.harvard.edu). Incubations were carried out for 1 hr. For secondary assays, PIT compounds were added at various concentrations (6.25, 12.5, 25, 50, 100, 150 and 200 μM), followed by a 30 min incubation. The inhibition rates were calculated as inhibition rate=[1−(compound-treated group/control group)]×100%, and IC50 value was determined using Origin6 software (MicroCal, LLC, Northampton, Mass.).
Target sequence in this assay (P31749 1-123): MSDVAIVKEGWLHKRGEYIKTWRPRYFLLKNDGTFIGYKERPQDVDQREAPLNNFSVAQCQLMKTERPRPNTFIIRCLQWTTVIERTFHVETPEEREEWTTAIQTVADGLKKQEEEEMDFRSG

PDK1 PH domain = PDK1 PH domain (Homo sapiens (Human), UniProt O15530); experiment: FP PIP3/PDK1 PH domain binding assay; settings: 15 nM TMR-conjugated PIP3, 100 nM PDK1 PH domain, 30 min
Chain of PDK1 PH domain (O15530 441-551): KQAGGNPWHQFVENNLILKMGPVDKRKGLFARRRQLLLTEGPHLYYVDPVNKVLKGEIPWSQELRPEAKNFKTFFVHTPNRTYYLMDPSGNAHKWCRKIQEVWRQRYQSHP
Text: as §1

GRP1 PH domain = GRP1 PH domain (Homo sapiens, UniProt O43739); experiment: FP PIP3/GRP1 PH domain binding assay; settings: 15 nM TMR-conjugated PIP3, 100 nM GRP1 PH domain, 30 min
U87MG cells [2] = experiment: cells; format: cell-based
Description: Based on the critical role of PIP3-dependent […] signaling in the regulation of cell survival, the effect of PIT-1 on the cancer cell viability was tested. Cancer cells were seeded into 96-well plates (white plates for ATP assay; black plates for fluorescent assay; clear plates for MTS assay) at the density of 5-10×10^3 cells per well in 100 μl of the appropriate media. Compounds were added at a series of concentrations and incubated for different times. For the ATP assay, a luminescence-based commercial kit (CellTiter-Glo, Promega, Madison, Wis.) was used. Thirty microliters of cell lysis/ATP detection reagent was added to each well, mixed for 10 min at room temperature, and the luminescence was measured using a Wallac Victor 3 plate reader (Perkin-Elmer, Wellesley, Mass.). For the MTS assay, a CellTiter 96 AQueous Non-Radioactive Cell Proliferation Assay Kit (Promega, Madison, Wis., USA) was used. Twenty microliters of the combined MTS/PMS solution was added into each well, incubated for 4 hr at 37° C., and the absorbance at 490 nm was measured using a Wallac Victor 3 plate reader. For the Sytox cell death assay, measuring loss of plasma membrane integrity, cells were incubated with 1 μM Sytox Green reagent (Molecular Probes, Eugene, Oreg.) for 30 min at 37° C. and the fluorescence intensity was measured using Wallac Victor 3 plate reader with excitation at 485 nm and emission at 545 nm. Next, 5 μl of 20% (v/v) Triton X-100 solution was added to each well and incubated for 1 hr at 37° C., and the signal was measured again. The ratio of values (percentage of dead cells in each well) before and after Triton X-100 treatment was calculated and normalized to the relevant controls not subjected to the cytotoxic stimuli. IC50 values were determined using Origin6 software (MicroCal, LLC, Northampton, Mass.).
To measure induction of cell death by PIT-1 derivatives, U87MG cells were incubated with PITs (1.56-300 μM) for 48 hr. Cell viability was determined using ATP assay.

[3] = Solubility (aqueous, cell media); format: physicochemical; settings: 300 μM unencapsulated
Text: The size of the DM-PIT-1-loaded micelles was about 15 nm with a narrow size distribution.

4T1 breast tumor = experiment: Syngeneic 4T1 breast cancer growth in BALB/c mice; format: in vivo
Description: The effect of intravenous (i.v.) administration of both unencapsulated DM-PIT-1 in PBS and DM-PIT-1-M on the syngeneic 4T1 breast cancer growth in BALB/c mice was examined. 4T1 metastatic breast cancer cells were first cultured in vitro in DMEM medium containing 10% FBS and antibiotics. After re-suspension in PBS, the 4T1 cancer cells (8×10^4) were injected s.c. into axillary regions of BALB/c mice. The treatment with PIT-1 began on day 11 after inoculation of tumor cells, i.e., when tumors were palpable, but before tumors are precisely measurable (˜50 mm^3). Working solutions of all PIT-1-formulations were made in sterile 0.9% NaCl before injection into mice. […] If the tumor size reached approx. 1000 mm^3, the mice were euthanized using carbon dioxide (CO2) prior to cervical dislocation. Seven mice per group were used. The tumor volume (V) was measured every two days by microcaliper for 8 days. Tumor volume was calculated according to the formula (α×b^2)/2, where α is the longest and b is the shortest diameter of tumor, respectively. Tumor tissues were fixed in phosphate-buffered formalin, embedded in paraffin, cut in 4 μm thickness, and applied to slides. The slides were deparaffinized in xylenes using three changes for 5 min each, and hydrated gradually through graded alcohols: 100% ethanol twice for 10 min each, 95% ethanol twice for 10 min each, and then deionized water for 1 min with stirring. For antigen unmasking, slides were placed in a container, covered with 10 mM sodium citrate buffer, pH 6.0, and heated in a convection steamer for 1 hr. The slides were washed in deionized water three times for 2 min each, blocked with 5% normal goat blocking serum for 30 min, incubated with goat anti-CD31 primary antibody for 1 hr, and incubated with an Alexa Fluor 488-conjugated secondary antibody for 30 min. The slides were analyzed and photographed using a fluorescent microscope. TUNEL staining was performed using FragEL kit according to manufacturer's instructions (Calbiochem).

Akt PH domain [4] = biological target: T1, Akt PH domain; experiment: PH domain translocation assay (GFP fusion, plasma membrane); format: cell-based; settings: PDGF stimulation
Description: Cells were transfected with the corresponding GFP-fusion vectors, serum starved overnight, and incubated with 100 μM PITs or PIT-1 is for 2 hr, followed by stimulation with 100 ng/ml PDGF or 250 ng/ml PMA for 5 min. The translocation was analyzed using fluorescent microscope and was quantitated by counting the number of cells with translocated PH domains in five random fields.
To begin characterizing cellular activity of PITs, a PH domain translocation assay was performed, measuring PIP3-induced association of GFP-fused PH domains with the plasma membrane. […] Varnai P et al. (1999) J Biol Chem 274:10983-9. Several PH-domain-containing proteins, which are known to bind PIP3 specifically and efficiently, were examined. […] Oikawa T et al. (2004) Nat Cell Biol 6:420-6.
Target sequence in this assay (P31749 5-108): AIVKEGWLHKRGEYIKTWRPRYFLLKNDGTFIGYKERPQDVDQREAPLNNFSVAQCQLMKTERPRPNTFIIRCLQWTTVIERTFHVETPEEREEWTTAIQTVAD

[5] = tested on: SV40-transformed mouse adult lung fibroblasts; experiment: Viability of Akt1-expressing versus Akt1-3 triple knockout fibroblasts; format: cell-based
Text: Shaughnessy J D (2008) Nature 454:172-3; Weinstein I G (2002) Science 297:63-4. Therefore, the possibility that PIT-1 may cause preferential cell death in the cells containing elevated PIP3 levels was examined. […] Li D M et al. (1998) Proc Natl Acad Sci USA 95:15406-11. […] Neshat M S et al. (2001) Proc Natl Acad Sci USA 98:10314-9.

[6] = Cell death in combination with inhibitors of mitochondrial respiration and ATP synthase; format: cell-based
Text: Elstrom R L et al. (2004) Cancer Res 64:3892-9.

human cancer cells = experiment: Cancer cell migration, transwell migration and wound closure models; format: cell-based; settings: model not specified
Description: Two models of cell migration were used, a transwell migration model and a wound closure model. Migration of cancer and endothelial cells was evaluated using 24-transwell Boyden chamber (Costar, Bedford, Mass.) with a polystyrene membrane (6.5 mm diameter, 10 μm thickness, and 8 μm pore size). Cells were suspended in serum-free media and seeded in the upper compartment of each well (2×10^4 cells/well) in the presence or absence of different compounds at the indicated concentrations. The lower compartment contained 600 μl of serum-free culture media supplemented with growth factors. After an 8-hr incubation at 37° C., cells were fixed and stained with 0.1% crystal violet. Non-migrating cells on the upper surface of the filter were removed, and the stained cells that migrated to the lower side were photographed using a phase-contrast microscope (Nikon, Japan) in five random fields. The cells were lysed with 10% acetic acid, and colorimetric determination was made at 595 nm using Wallac Victor 3 plate reader.
Cancer or endothelial cells were seeded into fibronectin-coated 96-well plates (2×10^4 cells/well). After reaching confluence, cell monolayers were scratched with a pipette tip to obtain a “wound”. The media and dislodged cells were aspirated and replaced by fresh serum-free media in the presence of growth factors, with or without compounds at different concentrations. After an 8-hr incubation at 37° C., cells were photographed using a phase-contrast microscope in five random fields. The width of wounded cell monolayers in images was measured and the inhibition rates of migration were calculated as inhibition rate=[1−(compound-treated group/control group)]×100%, and IC50 value was determined using Origin6 software (MicroCal, LLC, Northampton, Mass.).

U87MG cells [7] = experiment: Combination with Akt kinase inhibitors in U87MG cells (western blot, ATP assay); format: cell-based, human
Description: U87MG cells were treated with 100 μM PIT-1, or 10 μM Akt inhibitor VIII (Calbiochem) or Akt inhibitor (Calbiochem), or 100 μM PIT-1 together with 10 μM Akt inhibitor VIII or Akt inhibitor, for 12 hr and then phosphorylation events were evaluated by western blot.

U87MG cells [8] = experiment: Sensitization of U87MG cells to TRAIL, ATP assay; format: cell-based, human
Description: FIG. 10 is a bar graph depicting that PITs, as well as Akt inhibitor VIII, sensitize U87MG cells to killing by TRAIL. U87MG cells were incubated with 50 μM PIT-1, PIT-2, PIT-1i-1 or 10 μM Akt inhibitor VIII in the presence or absence of 10 ng/ml TRAIL for 48 hr, followed by cell viability analysis using ATP assay.
Upregulation of PI3K/Akt signaling is an important mechanism of chemoresistance of cancer cells. Blume-Jensen P et al. (2001) Nature 411:355-65; Osaki M et al. (2004) Apoptosis 9:667-76. […] Puduvalli V K et al. (2005) Apoptosis 10:233-43 TRAIL represents a particularly promising anti-cancer agent due to its intrinsic selectivity towards cancer cells which is associated with the expression of the decoy receptors by many (but not all) normal cells. Abe K et al. (2000) Ann NY Acad Sci 926:52-63. […] Oka N et al. (2005) Cancer Res 65:7546-53.

## Cc1cc(C)cc(C(=O)NC(=S)Nc2cc([N+](=O)[O-])ccc2O)c1 [DM-PIT-1]
Akt PH domain [1]
  IC50: 27.1 ± 3.2 µM
PDK1 PH domain
  IC50: 80.5 ± 3.1 µM
GRP1 PH domain
  IC50: 35.5 ± 3.8 µM
U87MG cells [2]; Homo sapiens, U-87 MG, U87MG cells, 48 hr, ATP assay, read-out: Cell Viability IC50
  IC50: 33.9 ± 2.2 µM
U87MG cells [2]; cell death in U87MG cells, cell migration, PI3K-PDK1-Akt signaling
  activity compared to PIT-1: increased activity in these assays compared to PIT-1
[3]
  precipitation in cell media: significant precipitation
4T1 breast tumor; day 8, 0.4 mg/kg/day i.v.
  reduction of tumor volume compared to control: 58.1%
  tumor volume: 380±52.3 mm^3
4T1 breast tumor; i.v. daily 8 days, DM-PIT-1 0.4 mg/kg, DM-PIT-1-M 1 mg/kg, P<0.01
  tumor growth compared to control: significantly attenuated tumor growth
4T1 breast tumor; mouse, in vivo
  tumor angiogenesis, CD31 loci: marked decrease in cancer angiogenesis

## O=c1[nH]c2ccccc2n1C1CCN(Cc2ccc(-c3nc4cc5[nH]cnc5cc4nc3-c3ccccc3)cc2)CC1 [Akt inhibitor VIII]
Akt PH domain [4]
  plasma membrane translocation of Akt PH domain: Neither Akt inhibitor X nor allosteric inhibitor VIII blocked membrane translocation
[5]
  loss of viability in Akt1-expressing versus Akt1-3 triple knockout fibroblasts: comparable
[6]
  cell death with oligomycin, antimycin A, rotenone: synergized
Human cancer cells
  cancer cell migration: lack thereof
U87MG cells [7]
  combination of Akt inhibitors VIII and X: no additive effect

B1: TRAIL: Tumor necrosis factor (TNF)-related apoptosis-inducing ligand, 281 amino acid member of the TNF family of cytokines (protein, UniProt P50591 1-281, looked up)
Tumor necrosis factor ligand …: MAMMEVQGGPSLGQTCVLIVIFTVLLQSLCVAVTYVYFTNELKQMQDKYSKSGIACFLKEDDSYWDPNDEESMNSPCWQVKWQLRQLVRKMILRTSEETISTVQEKQQNISPLVRERGPQRVAAHITGTRGRSNTLSSPNSKNEKALGRKINSWESSRSGHSFLSNLHLRNGELVIHEKGFYYIYSQTYFRFQEEIKENTKNDKQMVQYIYKYTSYPDPILLMKSARNSCWSKDAEYGLYSIYQGGIFELKENDRIFVSVTNEHLIDMDHEASFFGAFLVG
U87MG cells [8]
  sensitivity of U87MG cells to TRAIL alone: entirely resistant
